US8546406B2, “Heterocyclic compounds as metap-2 inhibitors” (Merck Patent GmbH, priority 2009, dated 2013)

Experiments:
MetAP-2 = MetAP-2 (Homo sapiens, UniProt P50579); assay: MetAP-2 activity measurement (coupled enzymatic reactions, substrate Met-Arg-Ser, photometric at 450 nm); assay type: biochemical; conditions: Inhibition of MetAP-2; read-out: IC50 enzyme
Procedure: The MetAP-2 activity is determined by coupling enzymatic reactions. The tripeptide Met-Arg-Ser (MAS) is employed as substrate. The methionine liberated is firstly converted into Metox and H2O2 by L-aminooxidase (AAO). In the second step, the peroxidase (POD) with the aid of the H2O2 catalyses the oxidation of the leukodye dianisidine to dianisidineox, the increase of which is detected photometrically at 450 nm.
MetAP-2 activity can be recorded continuously as kinetics. The reaction scheme illustrates that one mol of dianisidineox is formed per mol of methionene. The MetAP-2 enzyme activity can therefore be calculated directly as Δ absorption per time unit. Qualification of the MetAP-2 activity (mol of Met/time unit) is possible with the aid of the dianisidineox extinction coefficient. The change in extinction per time unit is depicted graphically and a slope calculation is carried out in the visually linear region of the reaction.

Chain of MetAP-2 (P50579 whole entry, species assumed): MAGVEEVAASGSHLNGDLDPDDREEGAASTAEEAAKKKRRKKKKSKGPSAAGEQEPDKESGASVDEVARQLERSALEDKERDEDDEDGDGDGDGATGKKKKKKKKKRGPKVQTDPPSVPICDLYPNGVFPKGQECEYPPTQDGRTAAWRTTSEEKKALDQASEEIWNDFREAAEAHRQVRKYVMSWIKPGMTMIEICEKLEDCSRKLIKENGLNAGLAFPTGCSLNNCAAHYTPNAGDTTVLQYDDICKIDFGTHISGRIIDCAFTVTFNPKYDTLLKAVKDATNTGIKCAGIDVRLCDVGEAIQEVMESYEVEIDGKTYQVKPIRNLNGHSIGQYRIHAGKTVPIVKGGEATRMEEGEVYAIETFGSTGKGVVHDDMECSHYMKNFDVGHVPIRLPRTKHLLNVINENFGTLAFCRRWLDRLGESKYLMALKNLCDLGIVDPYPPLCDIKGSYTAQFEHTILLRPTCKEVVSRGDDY

| SMILES | IC50 (MetAP-2) | melting point |
| --- | --- | --- |
| c1cnn(-c2ccnc3ncnn23)c1 [Compound A2, 7-pyrazol-1-yl-[1,2,4]triazolo[1,5-a]pyrimidine] | > 10000 nM | 191 to 193 °C |
| c1cc(OC[C@H]2CCCN2c2ccnc3ncnn23)c2cccnc2c1 [Compound A5, 5-((R)-1-[1,2,4]triazolo[1,5-a]pyrimidin-7-ylpyrrolidin-2-ylmethoxy)quinoline] | 10 to 1000 nM | 93 to 95 °C |
| O=C(OC[C@H]1CCCN1c1ccnc2ncnn12)c1cccc(OC(F)(F)F)c1 [Compound A82, (R)-1-[1,2,4]Triazolo[1,5-a]pyrimidin-7-yl-pyrrolidin-2-ylmethyl 3-trifluoromethoxy-benzoate] | 10 to 1000 nM | – |

The next lines start with the values.

| IC50 (MetAP-2) | melting point | SMILES |
| --- | --- | --- |
| 10 to 1000 nM | – | OC[C@H]1CCCN1c1ccnc2ncnn12 [Compound A83] |
| 1000 to 10000 nM | – | O=S(=O)(NC[C@H]1CCCN1c1ccnc2ncnn12)c1ccc(F)cc1 [Compound A84] |
